Calls of active or inactive are those of the source.
Assays:
Type in all cases: functional
[1] = test system: H4; test: Luminescence Cell-Based Dose Response HTS to Identify Activators of 5'UTR Stem-Loop Driven Prion Protein mRNA Translation in H4 Neuroglioblastoma Cells. [Related pubchem assays: 1829 (Project Summary), 1814 (Primary HTS)]; conditions: Homo sapiens
[2] = biological target: T1, Sentrin-specific protease 8 (Homo sapiens, UniProt Q96LD8);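 further: luminescence read-out of SENP8 inhibition, dose-response confirmation following an ultra-high-throughput screen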
T1 sequence (Q96LD8 whole entry): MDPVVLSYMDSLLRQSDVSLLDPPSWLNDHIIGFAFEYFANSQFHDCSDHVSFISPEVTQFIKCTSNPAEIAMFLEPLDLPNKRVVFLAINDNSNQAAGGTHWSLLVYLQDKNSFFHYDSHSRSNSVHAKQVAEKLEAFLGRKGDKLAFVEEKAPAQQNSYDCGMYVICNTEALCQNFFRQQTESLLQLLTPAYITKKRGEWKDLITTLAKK

[3] = biological target: Megakaryocyte-associated tyrosine-protein kinase (Homo sapiens, UniProt P42679);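 further: affinity measured as one member of a kinase panel (Navigating the Kinome) against MATK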
[4] = biological target: Serine/threonine-protein kinase PLK3 (Homo sapiens, UniProt Q9H4B4)
[5] = biological target: Serine/threonine-protein kinase D2 (Homo sapiens, UniProt Q9BZL6);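 further: measured against PRKD2 as one member of a kinome-wide kinase profiling panel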
[6] = biological target: SRSF protein kinase 1 (Homo sapiens, UniProt Q96SB4);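 further: measured as one member of a kinome-wide kinase profiling panel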
[7] = biological target: Casein kinase II subunit alpha (Homo sapiens, UniProt P68400)
[8] = biological target: Casein kinase I isoform alpha (Homo sapiens, UniProt P48729)
Chain of Casein kinase I isoform alpha (P48729 whole entry, canonical isoform): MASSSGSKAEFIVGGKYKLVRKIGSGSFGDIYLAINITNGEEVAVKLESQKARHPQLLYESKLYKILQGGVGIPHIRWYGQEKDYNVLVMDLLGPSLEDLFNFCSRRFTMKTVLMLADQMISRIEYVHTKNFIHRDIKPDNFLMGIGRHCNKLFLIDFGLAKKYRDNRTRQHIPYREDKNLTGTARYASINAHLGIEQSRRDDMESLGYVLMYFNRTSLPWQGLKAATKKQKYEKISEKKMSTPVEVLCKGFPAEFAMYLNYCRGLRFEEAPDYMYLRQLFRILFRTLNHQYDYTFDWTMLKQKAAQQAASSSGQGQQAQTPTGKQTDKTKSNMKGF

[9] = biological target: Insulin receptor (Homo sapiens, UniProt P06213);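 further: insulin receptor kinase tested as one member of a kinome-wide kinase panel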
[10] = biological target: Serine/threonine-protein kinase pim-3 (Homo sapiens, UniProt Q86V86);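 further: value obtained as one member of a broad kinase panel profiling effort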
[11] = biological target: Protein kinase C gamma type (Homo sapiens, UniProt P05129)
[12] = biological target: Dual specificity tyrosine-phosphorylation-regulated kinase 3 (Homo sapiens, UniProt O43781);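 further: measured as one member of a broad kinase panel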
[13] = biological target: Hepatocyte growth factor receptor (Homo sapiens, UniProt P08581);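 further: kinase panel profiling across the kinome, with MET as the panel member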
[14] = biological target: Receptor-type tyrosine-protein kinase FLT3 (Homo sapiens, UniProt P36888);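 further: FLT3 was tested as one member of a kinome-wide kinase panel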
[15] = biological target: Receptor tyrosine-protein kinase erbB-2 (Homo sapiens, UniProt P04626); test: Navigating the Kinome. Panel member name: ERBB2
Chain of Receptor tyrosine-protein kinase erbB-2 (P04626 whole entry): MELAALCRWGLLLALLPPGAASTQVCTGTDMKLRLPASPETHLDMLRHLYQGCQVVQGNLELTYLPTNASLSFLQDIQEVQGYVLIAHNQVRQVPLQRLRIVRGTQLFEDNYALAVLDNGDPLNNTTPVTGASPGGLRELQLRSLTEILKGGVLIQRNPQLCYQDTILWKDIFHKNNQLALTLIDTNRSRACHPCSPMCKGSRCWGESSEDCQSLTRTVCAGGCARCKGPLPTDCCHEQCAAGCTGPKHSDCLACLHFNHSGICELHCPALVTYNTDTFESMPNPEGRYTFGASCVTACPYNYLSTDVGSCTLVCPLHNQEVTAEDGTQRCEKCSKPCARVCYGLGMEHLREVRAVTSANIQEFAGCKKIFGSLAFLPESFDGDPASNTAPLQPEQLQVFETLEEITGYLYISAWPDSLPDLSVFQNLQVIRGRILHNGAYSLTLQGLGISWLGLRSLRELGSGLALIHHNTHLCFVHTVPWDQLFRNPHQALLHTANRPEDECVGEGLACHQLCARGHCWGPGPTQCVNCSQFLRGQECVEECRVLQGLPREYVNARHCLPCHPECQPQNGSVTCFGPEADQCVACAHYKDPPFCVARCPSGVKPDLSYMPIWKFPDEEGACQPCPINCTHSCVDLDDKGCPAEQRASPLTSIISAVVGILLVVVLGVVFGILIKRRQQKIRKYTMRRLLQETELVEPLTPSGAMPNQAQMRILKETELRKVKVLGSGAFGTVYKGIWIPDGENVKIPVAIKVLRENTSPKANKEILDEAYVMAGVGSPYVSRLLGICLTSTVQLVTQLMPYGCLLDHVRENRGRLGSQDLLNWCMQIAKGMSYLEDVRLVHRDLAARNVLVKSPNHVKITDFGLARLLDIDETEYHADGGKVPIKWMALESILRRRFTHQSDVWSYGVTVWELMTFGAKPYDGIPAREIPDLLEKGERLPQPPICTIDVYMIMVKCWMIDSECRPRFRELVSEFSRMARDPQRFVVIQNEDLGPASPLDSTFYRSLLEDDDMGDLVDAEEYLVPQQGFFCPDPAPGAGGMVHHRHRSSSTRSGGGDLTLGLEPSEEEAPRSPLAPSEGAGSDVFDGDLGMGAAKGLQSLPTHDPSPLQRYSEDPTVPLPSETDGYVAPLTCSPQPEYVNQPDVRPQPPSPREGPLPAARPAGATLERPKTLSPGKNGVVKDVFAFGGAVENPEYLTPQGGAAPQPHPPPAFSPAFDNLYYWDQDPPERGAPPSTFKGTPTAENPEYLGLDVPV

[16] = biological target: Serine/threonine-protein kinase Nek4 (Homo sapiens, UniProt P51957)
[17] = biological target: Dual specificity tyrosine-phosphorylation-regulated kinase 4 (Homo sapiens, UniProt Q9NR20)
Chain of Dual specificity tyrosine-phosphorylation-regulated kinase 4 (Q9NR20 whole entry): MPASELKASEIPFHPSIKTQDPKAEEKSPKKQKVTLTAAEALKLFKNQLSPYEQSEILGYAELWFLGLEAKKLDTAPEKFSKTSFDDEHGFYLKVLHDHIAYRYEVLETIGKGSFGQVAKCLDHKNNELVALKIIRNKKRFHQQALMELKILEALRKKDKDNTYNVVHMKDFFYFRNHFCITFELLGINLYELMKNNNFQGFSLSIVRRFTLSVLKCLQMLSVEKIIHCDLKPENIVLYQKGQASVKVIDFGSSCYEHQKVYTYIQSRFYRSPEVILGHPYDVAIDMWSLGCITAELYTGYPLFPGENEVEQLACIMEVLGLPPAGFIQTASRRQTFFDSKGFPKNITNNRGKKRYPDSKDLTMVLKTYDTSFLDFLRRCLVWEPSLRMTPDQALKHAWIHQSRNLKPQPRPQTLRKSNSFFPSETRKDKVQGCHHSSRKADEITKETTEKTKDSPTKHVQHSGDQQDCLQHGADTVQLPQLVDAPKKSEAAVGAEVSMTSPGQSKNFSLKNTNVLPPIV

[18] = biological target: Interleukin-1 receptor-associated kinase 1 (Homo sapiens, UniProt P51617);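 further: IRAK1 tested as one member of a kinome panel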
[19] = biological target: Homeodomain-interacting protein kinase 4 (Homo sapiens, UniProt Q8NE63)
Chain of Homeodomain-interacting protein kinase 4 (Q8NE63 whole entry): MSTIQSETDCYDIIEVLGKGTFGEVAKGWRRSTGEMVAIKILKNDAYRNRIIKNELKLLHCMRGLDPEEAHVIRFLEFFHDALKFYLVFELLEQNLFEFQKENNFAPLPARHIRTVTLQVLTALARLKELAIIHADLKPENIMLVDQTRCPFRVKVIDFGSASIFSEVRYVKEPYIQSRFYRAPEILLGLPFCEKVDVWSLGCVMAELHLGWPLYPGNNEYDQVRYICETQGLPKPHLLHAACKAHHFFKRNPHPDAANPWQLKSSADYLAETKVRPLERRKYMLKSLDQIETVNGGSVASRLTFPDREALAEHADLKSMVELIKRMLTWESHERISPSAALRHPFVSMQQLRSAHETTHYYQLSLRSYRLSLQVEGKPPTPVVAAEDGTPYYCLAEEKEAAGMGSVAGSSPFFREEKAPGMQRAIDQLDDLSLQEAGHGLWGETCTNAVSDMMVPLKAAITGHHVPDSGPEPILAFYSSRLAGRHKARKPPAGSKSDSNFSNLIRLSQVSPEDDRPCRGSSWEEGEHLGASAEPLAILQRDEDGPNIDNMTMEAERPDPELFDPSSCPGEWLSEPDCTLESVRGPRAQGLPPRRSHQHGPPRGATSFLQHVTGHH

[20] = biological target: 3-phosphoinositide-dependent protein kinase 1 (Homo sapiens, UniProt O15530);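 further: value comes from the Navigating the Kinome panel, PDPK1 member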
[21] = biological target: Serine/threonine-protein kinase DCLK1 (Homo sapiens, UniProt O15075);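 further: affinity for DCLK1 (listed as DCAMKL1) measured as one member of a kinome-wide kinase profiling panel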
[22] = biological target: STE20-like serine/threonine-protein kinase (Homo sapiens, UniProt Q9H2G2)
[23] = biological target: Fibroblast growth factor receptor 3 (Homo sapiens, UniProt P22607)
Chain of Fibroblast growth factor receptor 3 (P22607 whole entry): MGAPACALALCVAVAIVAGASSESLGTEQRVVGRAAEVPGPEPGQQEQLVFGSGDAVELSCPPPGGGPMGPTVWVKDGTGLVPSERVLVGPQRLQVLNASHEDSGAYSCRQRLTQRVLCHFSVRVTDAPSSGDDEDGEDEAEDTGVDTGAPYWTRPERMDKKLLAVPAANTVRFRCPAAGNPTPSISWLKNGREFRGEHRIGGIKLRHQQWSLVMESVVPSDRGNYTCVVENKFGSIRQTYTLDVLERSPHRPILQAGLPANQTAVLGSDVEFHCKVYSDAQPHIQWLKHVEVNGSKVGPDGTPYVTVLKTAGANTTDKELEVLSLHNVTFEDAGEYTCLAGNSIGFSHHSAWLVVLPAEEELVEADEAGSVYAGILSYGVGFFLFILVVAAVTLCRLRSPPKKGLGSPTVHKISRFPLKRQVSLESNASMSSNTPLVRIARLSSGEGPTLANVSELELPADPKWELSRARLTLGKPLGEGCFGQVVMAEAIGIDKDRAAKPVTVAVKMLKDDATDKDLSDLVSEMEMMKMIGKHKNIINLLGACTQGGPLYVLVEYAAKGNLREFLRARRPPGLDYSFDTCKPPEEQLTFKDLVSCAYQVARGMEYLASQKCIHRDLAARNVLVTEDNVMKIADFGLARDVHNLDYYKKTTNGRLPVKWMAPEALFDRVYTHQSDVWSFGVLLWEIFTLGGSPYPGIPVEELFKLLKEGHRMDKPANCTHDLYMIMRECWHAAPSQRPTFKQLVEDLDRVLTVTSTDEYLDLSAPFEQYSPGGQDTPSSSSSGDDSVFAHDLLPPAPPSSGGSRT

[24] = biological target: Receptor tyrosine-protein kinase erbB-4 (Homo sapiens, UniProt Q15303);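 further: ERBB4 member of a kinome-wide kinase profiling panel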
[25] = biological target: Lymphokine-activated killer T-cell-originated protein kinase (Homo sapiens, UniProt Q96KB5);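 further: value comes from a kinase panel screen in which TOPK was one of the panel members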
Chain of Lymphokine-activated killer T-cell-originated protein kinase (Q96KB5 whole entry): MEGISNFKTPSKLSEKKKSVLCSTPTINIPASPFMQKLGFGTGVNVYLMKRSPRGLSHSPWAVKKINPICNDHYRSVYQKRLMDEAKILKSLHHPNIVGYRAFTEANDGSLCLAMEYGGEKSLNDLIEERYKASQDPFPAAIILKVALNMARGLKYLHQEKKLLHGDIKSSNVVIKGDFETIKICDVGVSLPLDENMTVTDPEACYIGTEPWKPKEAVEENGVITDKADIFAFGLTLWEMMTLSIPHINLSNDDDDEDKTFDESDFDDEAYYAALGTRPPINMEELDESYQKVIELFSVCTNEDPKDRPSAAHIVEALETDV

[26] = biological target: Tyrosine-protein kinase FRK (Homo sapiens, UniProt P42685);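 further: FRK tested as one member of a kinome panel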
[27] = biological target: Tyrosine-protein kinase Lck (Homo sapiens, UniProt P06239);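 further: lck was assayed as one member of a kinase panel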
[28] = biological target: Focal adhesion kinase 1 (Homo sapiens, UniProt Q05397);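 further: measured as one member of a kinome panel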
[29] = biological target: Leucine-rich repeat serine/threonine-protein kinase 2 (Homo sapiens, UniProt Q5S007);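 further: value from a broad kinome-wide panel profiling study in which LRRK2 was one of the kinases tested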
[30] = biological target: Rho-associated protein kinase 1 (Homo sapiens, UniProt Q13464);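 further: measured within a broad kinome-wide panel profiling many kinases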
[31] = biological target: Inhibitor of nuclear factor kappa-B kinase subunit epsilon (Homo sapiens, UniProt Q14164); test: Navigating the Kinome. Panel member name: IKBKE
[32] = biological target: Protein kinase C zeta type (Homo sapiens, UniProt Q05513);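 further: measured as one member of a broad kinase profiling panel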
[33] = biological target: Cyclin-dependent kinase 5 (Homo sapiens, UniProt Q00535);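 further: CDK5 measured as one member of a kinase profiling panel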

## O=C1C2=[N+]([O-])[C@H]3CCCC[C@H]3[N+]([O-])=C2c2ccccc21
[1]
  EC50: 23.5 µM (active)
[2]
  IC50: 21.5 µM (active)

## NC1CCC(Nc2nccc(-c3c[nH]c4ncccc34)n2)CC1 (stereo not given)
[3]
  Ki: > 2 µM (inactive)
[4]
  Ki: > 7.94 µM (inactive)
[5]
  Ki: 0.0251 µM (active)
[6]
  Ki: 1 µM (active)
[7]
  Ki: 2.51 µM (active)
[8]
  Ki: 0.0501 µM (active)
[9]
  Ki: 0.501 µM (active)
[10]
  Ki: 0.2 µM (active)
[11]
  Ki: 0.158 µM (active)
[12]
  Ki: 0.0631 µM (active)
[13]
  Ki: > 3.16 µM (inactive)
[14]
  Ki: 0.0631 µM (active)
[15]
  Ki: > 1.58 µM (inactive)
[16]
  Ki: 2 µM (active)
[17]
  Ki: 1.58 µM (active)
[18]
  Ki: 0.126 µM (active)
[19]
  Ki: 2.51 µM (active)
[20]
  Ki: 1.26 µM (active)
[21]
  Ki: 1 µM (active)
[22]
  Ki: 0.398 µM (active)
[23]
  Ki: > 2 µM (inactive)
[24]
  Ki: > 3.98 µM (inactive)
[25]
  Ki: 0.631 µM (active)
[26]
  Ki: 0.501 µM (active)

## OCc1cc(-c2ccc3[nH]ncc3c2)on1
[27]
  Ki: 100 µM (active)
[13]
  Ki: 31.6 µM (active)
[28]
  Ki: 63.1 µM (active)
[29]
  Ki: 3.98 µM (active)
[30]
  Ki: 0.398 µM (active)
[31]
  Ki: 20 µM (active)

## COC(C(=O)N1Cc2[nH]nc(NC(=O)c3ccc(N4CCN(C)CC4)cc3)c2C1)c1ccccc1 (stereo not given)
[3]
  Ki: > 2 µM (inactive)
[32]
  Ki: > 7.94 µM (inactive)
[4]
  Ki: > 7.94 µM (inactive)
[6]
  Ki: > 7.94 µM (inactive)
[7]
  Ki: > 6.31 µM (inactive)
[10]
  Ki: > 7.94 µM (inactive)
[11]
  Ki: > 7.94 µM (inactive)
[12]
  Ki: > 6.31 µM (inactive)
[15]
  Ki: > 1.58 µM (inactive)
[17]
  Ki: > 7.94 µM (inactive)
[19]
  Ki: > 7.94 µM (inactive)
[20]
  Ki: > 3.98 µM (inactive)
[21]
  Ki: 0.0398 µM (active)
[23]
  Ki: 0.0316 µM (active)
[24]
  Ki: > 3.98 µM (inactive)
[25]
  Ki: > 10 µM (inactive)

## CC(C)(O)c1cn(-c2ccc3[nH]ncc3c2)nn1
[8]
  Ki: 10 µM (active)
[14]
  Ki: 50.1 µM (active)
[33]
  Ki: 5.01 µM (active)
[28]
  Ki: 50.1 µM (active)
[29]
  Ki: 12.6 µM (active)
[30]
  Ki: 0.794 µM (active)
[31]
  Ki: 31.6 µM (active)

— ChEMBL document CHEMBL1201862, “PubChem BioAssay data set” (2004)
